Results published in US20220281848A1, “PYRAZOLE-SUBSTITUTED PYRROLIDINONES AS HERBICIDES” (FMC Corporation, priority 2019, published 2022).

System: plants
Experiment: Test D pre-emergence, other plants of Tables D1 and D3
Format: in vivo
Settings: pre-emergence, 100=total damage, 0=no damage; for ALOMY damage rating / AVEFA damage rating / BEAVA damage rating / BROTE damage rating / BRSNN damage rating / CHEAL damage rating / GALAP damage rating / HORVW damage rating / KCHSC damage rating / LOLPE damage rating / POAAN damage rating / SINAR damage rating / STEME damage rating / VERPE damage rating: 20 DAA
Method in brief: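 Damage was rated visually from 0 (none) to 100 (total), at 20 DAA for pre-emergence and 15 d for post-emergence. Plants grew from safener-treated seed in a glasshouse at 24/18° C. or 20/16° C. day/night, 65% humidity, watered twice daily.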

## CN1CC(c2cc(Cl)n(C)n2)C(C(=O)Nc2ccc(F)c(F)c2F)C1=O (racemic) [Compound 31]
Rates 15
  ALOMY damage rating: 0
  AVEFA damage rating: 0
  BEAVA damage rating: 0
  BROTE damage rating: 0
  BRSNN damage rating: 0
  CHEAL damage rating: 0
  GALAP damage rating: 0
  HORVW damage rating: 0
  KCHSC damage rating: 0
  LOLPE damage rating: 0
  POAAN damage rating: 0
  SINAR damage rating: 0
  STEME damage rating: 0
  VERPE damage rating: 0
Rates 30
  ALOMY damage rating: 0
  AVEFA damage rating: 0
  BEAVA damage rating: 0
  BROTE damage rating: 0
  BRSNN damage rating: 0
  CHEAL damage rating: 0
  GALAP damage rating: 0
  HORVW damage rating: 0
  KCHSC damage rating: 0
  LOLPE damage rating: 0
  POAAN damage rating: 0
  SINAR damage rating: 0
  STEME damage rating: 0
  VERPE damage rating: 0
Rates 60
  CHEAL damage rating: 0
  GALAP damage rating: 0
  KCHSC damage rating: 0
  LOLPE damage rating: 0
  POAAN damage rating: 0
  STEME damage rating: 0
  VERPE damage rating: 0
Rates 130
  CHEAL damage rating: 0
  GALAP damage rating: 0
  KCHSC damage rating: 0
  LOLPE damage rating: 0
  POAAN damage rating: 0
  STEME damage rating: 0
  VERPE damage rating: 0
Rates 250
  CHEAL damage rating: 0
  GALAP damage rating: 0
  KCHSC damage rating: 0
  LOLPE damage rating: 0
  POAAN damage rating: 0
  STEME damage rating: 0
  VERPE damage rating: 30
Rates 500
  CHEAL damage rating: 20
  GALAP damage rating: 0
  KCHSC damage rating: 0
  LOLPE damage rating: 0
  POAAN damage rating: 10
  STEME damage rating: 10
  VERPE damage rating: 50
Rate 60, 20 DAA
  damage to plant, ALOMY: 0
  damage to plant, AVEFA: 0
  damage to plant, BEAVA: 0
  damage to plant, BROTE: 0
  damage to plant, BRSNN: 0
  damage to plant, HORVW: 0
  damage to plant, SINAR: 0
Rate 130, 20 DAA
  damage to plant, ALOMY: 0
  damage to plant, AVEFA: 0
  damage to plant, BEAVA: 0
  damage to plant, BROTE: 0
  damage to plant, BRSNN: 0
  damage to plant, HORVW: 0
  damage to plant, SINAR: 0
Rate 250, 20 DAA
  damage to plant, ALOMY: 0
  damage to plant, AVEFA: 0
  damage to plant, BEAVA: 0
  damage to plant, BROTE: 0
  damage to plant, BRSNN: 0
  damage to plant, HORVW: 0
  damage to plant, SINAR: 0
Rate 500, 20 DAA
  damage to plant, ALOMY: 0
  damage to plant, AVEFA: 10
  damage to plant, BEAVA: 0
  damage to plant, BROTE: 10
  damage to plant, BRSNN: 0
  damage to plant, HORVW: 20
  damage to plant, SINAR: 20
